Results published in US20220242870A1, “HETEROCYCLE-FUSED PYRIMIDINE DERIVATIVE AND USE THEREOF” (VORONOI Inc., priority 2019, published 2022).

Experiments:
Experiment in all cases: scanMAX kinase assay panel
Type in all cases: binding
[1] = target: T1, ABL1(H396P)-nonphosphorylated (Homo sapiens, UniProt P00519, H396P); details: read-out: control percentage (% control)
T1 construct: purchased DiscoverX (scanMAX panel, contract assay)
Protocol: (§1) The activities of the compounds according to the present invention to more diverse enzymes were evaluated. Specifically, it was decided that the enzyme selectivity of Example 74 selected from the compounds of Examples 1 to 129 was measured at the request of DiscoverX, and the experiment was conducted using a scanMAX™ kinase assay panel. At this time, as a drug to treat the enzyme, a solution prepared by dissolving in DMSO at a concentration of 1 μM was used, and the control percentage (% control) was determined by the method of Equation 1 below, and the results were shown in Table 2 below.
(§2) In Equation above, the positive control and negative control mean compounds showing control percentages of 0% and 100% as DMSO, respectively.

[2] = target: T2, AXL (Homo sapiens, UniProt P30530); details: read-out: control percentage (% control)
T2 construct: purchased DiscoverX (scanMAX panel, contract assay)
Protocol: as §1, §2

[3] = target: T3, BIKE (Homo sapiens, UniProt Q9NSY1); details: read-out: control percentage (% control)
T3 construct: purchased DiscoverX (scanMAX panel, contract assay)
Protocol: as §1, §2

[4] = target: T4, CDK4-cyclinD3 (Homo sapiens, UniProt P11802); details: read-out: control percentage (% control)
T4 construct: purchased DiscoverX (scanMAX panel, contract assay)
Protocol: as §1, §2

[5] = target: T5, CDK7 (Homo sapiens, UniProt P50613); details: read-out: control percentage (% control)
T5 construct: purchased DiscoverX (scanMAX panel, contract assay)
Protocol: as §1, §2

[6] = target: T6, CDKL2 (Homo sapiens, UniProt Q92772); details: read-out: control percentage (% control)
T6 construct: purchased DiscoverX (scanMAX panel, contract assay)
Protocol: as §1, §2

[7] = target: T7, CLK2 (Homo sapiens, UniProt P49760); details: read-out: control percentage (% control)
T7 construct: purchased DiscoverX (scanMAX panel, contract assay)
Protocol: as §1, §2

[8] = target: T8, CLK4 (Homo sapiens, UniProt Q9HAZ1); details: read-out: control percentage (% control)
T8 construct: purchased DiscoverX (scanMAX panel, contract assay)
Protocol: as §1, §2

[9] = target: T9, CSNK1G2 (Homo sapiens, UniProt P78368); details: read-out: control percentage (% control)
T9 construct: purchased DiscoverX (scanMAX panel, contract assay)
Protocol: as §1, §2

[10] = target: T10, DCAMKL3 (Homo sapiens, UniProt Q9C098); details: read-out: control percentage (% control)
T10 construct: purchased DiscoverX (scanMAX panel, contract assay)
Protocol: as §1, §2

[11] = target: T11, DLK (Homo sapiens, UniProt Q12852); details: read-out: control percentage (% control)
T11 construct: purchased DiscoverX scanMAX kinase assay panel
Protocol: as §1, §2

[12] = target: T12, EGFR(L858R, T790M) (Homo sapiens, UniProt P00533, L858R/T790M); details: read-out: control percentage (% control)
T12 construct: purchased DiscoverX scanMAX kinase assay panel
Protocol: as §1, §2

[13] = target: T13, FES (Homo sapiens, UniProt P07332); details: read-out: control percentage (% control)
T13 construct: purchased DiscoverX scanMAX kinase assay panel
Protocol: as §1, §2

[14] = test system: FLT3(ITD, D835V); details: 1 μM
Protocol: as §1, §2

[15] = target: T14, FLT3(N841I) (Homo sapiens, UniProt P36888, N841I); details: read-out: control percentage (% control)
T14 construct: purchased DiscoverX scanMAX kinase assay panel
Protocol: as §1, §2

[16] = target: T15, INSR (Homo sapiens, UniProt P06213); details: read-out: control percentage (% control)
T15 construct: purchased DiscoverX scanMAX kinase assay panel
Protocol: as §1, §2

[17] = target: T16, IRAK3 (Homo sapiens, UniProt Q9Y616); details: read-out: control percentage (% control)
T16 construct: purchased DiscoverX scanMAX kinase assay panel
Protocol: as §1, §2

[18] = target: T17, ITK (Homo sapiens, UniProt Q08881); details: read-out: control percentage (% control)
T17 construct: purchased DiscoverX scanMAX kinase assay panel
Protocol: as §1, §2

[19] = target: T18, JAK1(JH2domain-pseudokinase) (Homo sapiens, UniProt P23458); details: read-out: control percentage (% control)
T18 construct: JAK1(JH2domain-pseudokinase); purchased DiscoverX scanMAX kinase assay panel
Protocol: as §1, §2

[20] = target: T19, LOK (Homo sapiens, UniProt O94804); details: read-out: control percentage (% control)
T19 construct: purchased DiscoverX scanMAX kinase assay panel
Protocol: as §1, §2

[21] = target: T20, LRRK2 (Homo sapiens, UniProt Q5S007); details: read-out: control percentage (% control)
T20 construct: purchased DiscoverX scanMAX kinase assay panel
Protocol: as §1, §2

[22] = target: T21, LRRK2(G2019S) (Homo sapiens, UniProt Q5S007, G2019S); details: read-out: control percentage (% control)
T21 construct: purchased DiscoverX scanMAX kinase assay panel
Protocol: as §1, §2

[23] = target: T22, MAP4K2 (Homo sapiens, UniProt Q12851); details: read-out: control percentage (% control)
T22 construct: purchased DiscoverX scanMAX kinase assay panel
Protocol: as §1, §2

[24] = target: T23, MAP4K3 (Homo sapiens, UniProt Q8IVH8); details: read-out: control percentage (% control)
T23 construct: purchased DiscoverX scanMAX kinase assay panel
Protocol: as §1, §2

[25] = target: T24, MARK3 (Homo sapiens, UniProt P27448); details: read-out: control percentage (% control)
T24 construct: purchased DiscoverX scanMAX kinase assay panel
Protocol: as §1, §2

[26] = target: T25, MARK4 (Homo sapiens, UniProt Q96L34); details: read-out: control percentage (% control)
T25 construct: purchased DiscoverX scanMAX kinase assay panel
Protocol: as §1, §2

[27] = target: T26, MEK2 (Homo sapiens, UniProt P36507); details: read-out: control percentage (% control)
T26 construct: purchased DiscoverX scanMAX kinase assay panel
Protocol: as §1, §2

[28] = target: T27, MET (Homo sapiens, UniProt P08581); details: read-out: control percentage (% control)
T27 construct: purchased DiscoverX scanMAX kinase assay panel
Protocol: as §1, §2

[29] = target: T28, RET (Homo sapiens, UniProt P07949); details: read-out: control percentage (% control)
T28 construct: purchased DiscoverX scanMAX kinase assay panel
Protocol: as §1, §2

[30] = target: T29, ROCK2 (Homo sapiens, UniProt O75116); details: read-out: control percentage (% control)
T29 construct: purchased DiscoverX scanMAX kinase assay panel
Protocol: as §1, §2

[31] = target: T30, RSK3(Kin.Dom.2-C-terminal) (Homo sapiens, UniProt Q15349); details: read-out: control percentage (% control)
T30 construct: RSK3(Kin.Dom.2-C-terminal); purchased DiscoverX scanMAX kinase assay panel
Protocol: as §1, §2

[32] = target: T31, SRPK1 (Homo sapiens, UniProt Q96SB4); details: read-out: control percentage (% control)
T31 construct: purchased DiscoverX
Protocol: as §1, §2

[33] = target: T32, ULK3 (Homo sapiens, UniProt Q6PHR2); details: read-out: control percentage (% control)
T32 construct: purchased DiscoverX
Protocol: as §1, §2

[34] = target: T33, VRK2 (Homo sapiens, UniProt Q86Y07); details: read-out: control percentage (% control)
T33 construct: purchased DiscoverX
Protocol: as §1, §2

[35] = target: T34, YSK4 (Homo sapiens, UniProt Q56UN5); details: read-out: control percentage (% control)
T34 construct: purchased DiscoverX
Protocol: as §1, §2

T17 sequence (Q08881 whole entry): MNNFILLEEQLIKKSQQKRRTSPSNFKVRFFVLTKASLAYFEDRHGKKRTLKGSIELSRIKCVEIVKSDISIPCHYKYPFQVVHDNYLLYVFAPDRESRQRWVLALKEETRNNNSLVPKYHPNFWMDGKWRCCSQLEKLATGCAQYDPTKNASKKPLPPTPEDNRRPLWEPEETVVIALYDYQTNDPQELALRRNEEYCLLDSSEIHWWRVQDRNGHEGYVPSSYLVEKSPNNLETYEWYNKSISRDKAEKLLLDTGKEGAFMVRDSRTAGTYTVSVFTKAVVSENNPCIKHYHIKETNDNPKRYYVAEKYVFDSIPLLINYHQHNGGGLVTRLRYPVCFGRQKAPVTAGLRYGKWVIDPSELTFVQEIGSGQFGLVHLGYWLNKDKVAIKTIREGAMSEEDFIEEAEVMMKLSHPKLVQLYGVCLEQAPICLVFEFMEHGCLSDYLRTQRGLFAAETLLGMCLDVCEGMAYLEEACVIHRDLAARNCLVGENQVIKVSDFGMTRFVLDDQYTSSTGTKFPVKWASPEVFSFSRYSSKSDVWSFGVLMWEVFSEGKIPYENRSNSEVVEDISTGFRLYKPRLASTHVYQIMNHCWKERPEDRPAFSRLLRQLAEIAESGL
T12 sequence (P00533 25-1210 T790M/L858R): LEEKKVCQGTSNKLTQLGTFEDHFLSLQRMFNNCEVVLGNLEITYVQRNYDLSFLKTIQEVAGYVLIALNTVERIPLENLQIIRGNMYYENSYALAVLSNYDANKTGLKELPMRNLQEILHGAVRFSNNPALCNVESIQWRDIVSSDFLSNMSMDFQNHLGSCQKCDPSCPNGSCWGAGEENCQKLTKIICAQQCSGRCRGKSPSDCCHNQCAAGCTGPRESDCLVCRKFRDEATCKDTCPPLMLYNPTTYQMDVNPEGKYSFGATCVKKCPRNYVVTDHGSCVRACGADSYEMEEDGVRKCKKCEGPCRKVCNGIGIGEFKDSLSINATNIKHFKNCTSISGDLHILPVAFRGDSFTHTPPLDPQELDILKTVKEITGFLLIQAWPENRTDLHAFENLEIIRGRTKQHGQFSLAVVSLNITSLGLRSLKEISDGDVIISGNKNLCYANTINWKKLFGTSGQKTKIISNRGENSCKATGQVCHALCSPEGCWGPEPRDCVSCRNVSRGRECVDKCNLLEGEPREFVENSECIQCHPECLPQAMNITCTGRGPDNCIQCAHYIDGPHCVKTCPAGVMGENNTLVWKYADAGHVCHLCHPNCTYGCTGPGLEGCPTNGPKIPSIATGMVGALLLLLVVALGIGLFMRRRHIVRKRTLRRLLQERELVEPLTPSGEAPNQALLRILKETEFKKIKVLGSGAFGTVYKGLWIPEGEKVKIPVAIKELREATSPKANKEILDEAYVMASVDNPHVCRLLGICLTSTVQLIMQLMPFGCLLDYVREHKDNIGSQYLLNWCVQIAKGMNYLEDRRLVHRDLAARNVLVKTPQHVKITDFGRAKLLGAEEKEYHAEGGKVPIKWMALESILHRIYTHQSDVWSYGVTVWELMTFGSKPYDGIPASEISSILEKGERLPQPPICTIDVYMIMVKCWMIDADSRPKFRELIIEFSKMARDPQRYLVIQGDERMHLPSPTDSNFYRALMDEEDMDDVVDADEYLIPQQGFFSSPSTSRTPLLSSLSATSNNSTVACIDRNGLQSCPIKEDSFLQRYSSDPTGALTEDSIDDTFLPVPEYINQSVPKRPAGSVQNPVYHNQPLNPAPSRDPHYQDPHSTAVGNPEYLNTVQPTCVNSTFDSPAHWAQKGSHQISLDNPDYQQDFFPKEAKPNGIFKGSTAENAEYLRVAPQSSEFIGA
T16 sequence (Q9Y616 whole entry): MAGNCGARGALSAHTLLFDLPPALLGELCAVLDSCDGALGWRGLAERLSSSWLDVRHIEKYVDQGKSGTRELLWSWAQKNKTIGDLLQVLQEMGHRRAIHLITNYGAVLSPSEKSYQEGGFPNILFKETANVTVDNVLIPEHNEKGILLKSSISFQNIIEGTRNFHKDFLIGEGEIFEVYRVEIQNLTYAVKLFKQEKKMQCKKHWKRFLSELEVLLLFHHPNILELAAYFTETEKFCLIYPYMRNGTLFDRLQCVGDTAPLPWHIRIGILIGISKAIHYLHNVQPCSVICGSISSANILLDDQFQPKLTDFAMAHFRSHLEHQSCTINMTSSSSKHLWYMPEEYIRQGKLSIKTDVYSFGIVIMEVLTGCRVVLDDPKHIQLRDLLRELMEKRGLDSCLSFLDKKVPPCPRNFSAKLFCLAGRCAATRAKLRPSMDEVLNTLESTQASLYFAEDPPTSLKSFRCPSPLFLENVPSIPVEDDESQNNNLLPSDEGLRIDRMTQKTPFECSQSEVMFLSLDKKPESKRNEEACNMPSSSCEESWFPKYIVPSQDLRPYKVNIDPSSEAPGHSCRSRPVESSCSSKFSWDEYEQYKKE
T32 sequence (Q6PHR2 whole entry): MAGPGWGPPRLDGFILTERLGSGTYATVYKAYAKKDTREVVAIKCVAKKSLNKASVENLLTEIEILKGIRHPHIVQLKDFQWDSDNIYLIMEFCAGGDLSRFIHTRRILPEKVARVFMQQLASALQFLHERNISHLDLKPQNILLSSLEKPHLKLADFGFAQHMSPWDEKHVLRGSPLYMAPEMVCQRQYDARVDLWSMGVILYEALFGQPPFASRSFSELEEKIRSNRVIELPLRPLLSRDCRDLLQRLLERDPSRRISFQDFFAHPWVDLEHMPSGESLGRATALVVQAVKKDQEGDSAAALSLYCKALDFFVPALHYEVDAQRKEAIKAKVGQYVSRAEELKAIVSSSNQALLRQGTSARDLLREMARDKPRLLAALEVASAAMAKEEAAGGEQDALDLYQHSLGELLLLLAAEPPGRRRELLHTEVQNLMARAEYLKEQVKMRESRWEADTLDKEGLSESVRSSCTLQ
T8 sequence (Q9HAZ1 whole entry): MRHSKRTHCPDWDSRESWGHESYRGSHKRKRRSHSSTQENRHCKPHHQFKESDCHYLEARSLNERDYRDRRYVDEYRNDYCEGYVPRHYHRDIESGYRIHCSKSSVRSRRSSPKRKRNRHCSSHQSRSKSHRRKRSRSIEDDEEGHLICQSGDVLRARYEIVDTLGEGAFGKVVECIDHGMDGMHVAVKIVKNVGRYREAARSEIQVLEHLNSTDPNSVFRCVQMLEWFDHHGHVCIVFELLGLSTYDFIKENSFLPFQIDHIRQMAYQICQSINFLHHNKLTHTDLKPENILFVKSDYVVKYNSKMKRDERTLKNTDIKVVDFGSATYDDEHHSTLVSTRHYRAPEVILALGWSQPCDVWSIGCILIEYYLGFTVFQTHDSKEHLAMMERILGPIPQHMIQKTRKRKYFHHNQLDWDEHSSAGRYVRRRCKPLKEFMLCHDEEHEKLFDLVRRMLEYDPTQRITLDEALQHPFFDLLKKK
T28 sequence (P07949 29-1114): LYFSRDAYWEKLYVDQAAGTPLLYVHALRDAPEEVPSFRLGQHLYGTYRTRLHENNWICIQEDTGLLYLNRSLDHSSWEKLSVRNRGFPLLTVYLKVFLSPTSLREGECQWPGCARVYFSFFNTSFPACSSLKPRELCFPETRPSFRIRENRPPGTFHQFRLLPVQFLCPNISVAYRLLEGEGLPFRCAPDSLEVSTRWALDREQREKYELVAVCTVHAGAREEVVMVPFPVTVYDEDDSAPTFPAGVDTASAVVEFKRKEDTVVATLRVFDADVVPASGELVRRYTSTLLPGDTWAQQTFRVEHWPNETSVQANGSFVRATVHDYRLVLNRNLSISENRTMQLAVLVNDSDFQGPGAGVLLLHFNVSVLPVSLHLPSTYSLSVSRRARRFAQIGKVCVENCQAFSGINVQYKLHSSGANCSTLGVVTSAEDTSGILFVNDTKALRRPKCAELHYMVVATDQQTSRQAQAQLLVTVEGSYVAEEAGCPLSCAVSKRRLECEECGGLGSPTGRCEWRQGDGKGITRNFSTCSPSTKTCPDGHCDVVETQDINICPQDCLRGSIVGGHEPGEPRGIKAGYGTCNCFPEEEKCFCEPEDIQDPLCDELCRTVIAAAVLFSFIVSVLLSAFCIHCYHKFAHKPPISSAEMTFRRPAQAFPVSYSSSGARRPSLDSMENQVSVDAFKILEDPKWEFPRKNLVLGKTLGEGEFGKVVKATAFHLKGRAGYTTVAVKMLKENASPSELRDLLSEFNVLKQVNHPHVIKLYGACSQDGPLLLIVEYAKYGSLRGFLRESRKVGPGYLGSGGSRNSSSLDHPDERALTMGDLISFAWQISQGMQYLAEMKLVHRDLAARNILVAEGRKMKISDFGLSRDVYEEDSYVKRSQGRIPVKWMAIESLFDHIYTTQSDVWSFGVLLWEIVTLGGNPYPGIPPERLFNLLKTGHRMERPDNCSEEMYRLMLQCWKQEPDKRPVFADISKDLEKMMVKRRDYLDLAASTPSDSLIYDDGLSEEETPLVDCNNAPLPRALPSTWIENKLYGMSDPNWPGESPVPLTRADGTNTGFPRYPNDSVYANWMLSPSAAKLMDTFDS
T33 sequence (Q86Y07 whole entry): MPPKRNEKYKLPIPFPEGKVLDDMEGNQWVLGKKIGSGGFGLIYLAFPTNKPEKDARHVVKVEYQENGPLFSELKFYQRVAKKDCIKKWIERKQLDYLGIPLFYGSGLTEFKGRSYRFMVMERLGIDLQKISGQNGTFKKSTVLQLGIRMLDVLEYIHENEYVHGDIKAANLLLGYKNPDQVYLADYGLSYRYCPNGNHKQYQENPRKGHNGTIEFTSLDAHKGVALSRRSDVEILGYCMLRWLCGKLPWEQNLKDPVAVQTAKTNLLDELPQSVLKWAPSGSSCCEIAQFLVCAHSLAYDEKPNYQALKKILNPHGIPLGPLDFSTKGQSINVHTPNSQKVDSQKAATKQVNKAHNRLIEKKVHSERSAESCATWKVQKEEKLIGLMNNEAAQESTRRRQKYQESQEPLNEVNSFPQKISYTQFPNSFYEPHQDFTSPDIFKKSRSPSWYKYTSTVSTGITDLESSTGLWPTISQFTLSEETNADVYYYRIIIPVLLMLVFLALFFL

Work on CN1CCN(c2ccc(Nc3nc(N4OCC[C@H]4c4ccccc4)c4cc[nH]c4n3)cc2)CC1 [Example 74, (S)-N-(4-(4-methylpiperazin-1-yl)phenyl)-4-(3-phenylisoxazolidin-2-yl)-7H-pyrrolo[2,3-d]pyrimidin-2-amine] yielded a remaining binding at 1 µM [1] of 18%, a remaining binding at 1 µM [2] of 3.2% and a remaining binding at 1 µM [3] of 1.8%. It also gave a remaining binding at 1 µM [4] of 3%, a remaining binding at 1 µM [5] of 21% and a remaining binding at 1 µM [6] of 8.2%. The remaining binding at 1 µM [7] was 9.2%, the remaining binding at 1 µM [8] was 6.4% and the remaining binding at 1 µM [9] was 21%. For the same compound, the remaining binding at 1 µM [10] was 15%, the remaining binding at 1 µM [11] was 9.2% and the remaining binding at 1 µM [12] was 17%. The remaining binding at 1 µM [13] was 32%, the “control percentage (% control)” value [14] was 0% and the remaining binding at 1 µM [15] was 0.3%. It also gave a remaining binding at 1 µM [16] of 19%, a remaining binding at 1 µM [17] of 24% and a remaining binding at 1 µM [18] of 5.1%. The remaining binding at 1 µM [19] was 1.2%, the remaining binding at 1 µM [20] was 8.7% and the remaining binding at 1 µM [21] was 28%. For the same compound, the remaining binding at 1 µM [22] was 25%, the remaining binding at 1 µM [23] was 12% and the remaining binding at 1 µM [24] was 13%. For the same compound, the remaining binding at 1 µM [25] was 5.3%, the remaining binding at 1 µM [26] was 18% and the remaining binding at 1 µM [27] was 17%. The remaining binding at 1 µM [28] was 4.5%, the remaining binding at 1 µM [29] was 20% and the remaining binding at 1 µM [30] was 8%. The remaining binding at 1 µM [31] was 17%, the remaining binding at 1 µM [32] was 14% and the remaining binding at 1 µM [33] was 13%. It also gave a remaining binding at 1 µM [34] of 33% and a remaining binding at 1 µM [35] of 8.6%.
